Laboratory results: PubChem BioAssay AID1845212 (Molecular Pharmacology Branch, DTP, NCI, 2023)
pIC50: −log10 of the molar value.

Test system: NCI-H719 tumor spheroids, viability
Experiment: Anticancer human tumor NCI-H719 cell line growth inhibition;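 note: spheroids exposed to compounds for seven days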;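 for viability, T/C: percent viability relative to DMSO vehicle control as 100%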
Conditions: spheroids with HUVEC and MSC; for pIC50: curve of first compound; for viability, T/C: stronger effect = lower value
Method in brief: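 Complex tumor spheroids combined malignant cells with endothelial cells and mesenchymal stem cells. DNA-damaging drugs and DNA repair inhibitors were tested alone and in combination, at half-log dilutions down from clinical Cmax (top 10 microM if Cmax unknown), 0.25% DMSO final.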

[1] = second compound 0.003 µM, first compound 0.0316 µM
[2] = second compound 0.003 µM, first compound 0.1 µM
[3] = second compound 0.003 µM, first compound 0.316 µM
[4] = second compound 0.003 µM, first compound 1 µM
[5] = second compound 0.003 µM, first compound 3.16 µM
[6] = second compound 0.003 µM, first compound 10 µM
[7] = second compound 0.00949 µM, first compound 0.0316 µM
[8] = second compound 0.00949 µM, first compound 0.1 µM
[9] = second compound 0.00949 µM, first compound 0.316 µM
[10] = second compound 0.00949 µM, first compound 1 µM
[11] = second compound 0.00949 µM, first compound 3.16 µM
[12] = second compound 0.00949 µM, first compound 10 µM
[13] = second compound 0.03 µM, first compound 0.0316 µM
[14] = second compound 0.03 µM, first compound 0.1 µM
[15] = second compound 0.03 µM, first compound 0.316 µM
[16] = second compound 0.03 µM, first compound 1 µM
[17] = second compound 0.03 µM, first compound 3.16 µM
[18] = second compound 0.03 µM, first compound 10 µM
[19] = second compound 0.0949 µM, first compound 0.0316 µM
[20] = second compound 0.0949 µM, first compound 0.1 µM
[21] = second compound 0.0949 µM, first compound 0.316 µM
[22] = second compound 0.0949 µM, first compound 1 µM
[23] = second compound 0.0949 µM, first compound 3.16 µM
[24] = second compound 0.0949 µM, first compound 10 µM
[25] = second compound 0.3 µM, first compound 0.0316 µM
[26] = second compound 0.3 µM, first compound 0.1 µM
[27] = second compound 0.3 µM, first compound 0.316 µM
[28] = second compound 0.3 µM, first compound 1 µM
[29] = second compound 0.3 µM, first compound 3.16 µM
[30] = second compound 0.3 µM, first compound 10 µM

## CC1COCCN1c1cc(-c2ccnn2C)c2ccnc(-c3ccn[nH]3)c2n1 (stereo not given) + CC[C@@]1(O)C(=O)OCc2c1cc1n(c2=O)Cc2cc3c(CN(C)C)c(O)ccc3nc2-1
Second compound 0.003 µM
  pIC50: > 7.50
Second compound 0.00949 µM
  pIC50: > 7.50
Second compound 0.03 µM
  pIC50: > 7.50
Second compound 0.0949 µM
  pIC50: > 7.50
Second compound 0.3 µM
  pIC50: > 7.50
[1]
  viability, T/C: 14.9%
[2]
  viability, T/C: 7.36%
[3]
  viability, T/C: 5.05%
[4]
  viability, T/C: 5.69%
[5]
  viability, T/C: 5.95%
[6]
  viability, T/C: 7.37%
[7]
  viability, T/C: 5.44%
[8]
  viability, T/C: 4.76%
[9]
  viability, T/C: 5.26%
[10]
  viability, T/C: 4.81%
[11]
  viability, T/C: 5.91%
[12]
  viability, T/C: 7.24%
[13]
  viability, T/C: 5.59%
[14]
  viability, T/C: 5.35%
[15]
  viability, T/C: 4.66%
[16]
  viability, T/C: 4.18%
[17]
  viability, T/C: 5.76%
[18]
  viability, T/C: 7.48%
[19]
  viability, T/C: 5.89%
[20]
  viability, T/C: 5.72%
[21]
  viability, T/C: 4.2%
[22]
  viability, T/C: 3.96%
[23]
  viability, T/C: 3.73%
[24]
  viability, T/C: 3.78%
[25]
  viability, T/C: 5.64%
[26]
  viability, T/C: 5.76%
[27]
  viability, T/C: 5.49%
[28]
  viability, T/C: 2.94%
[29]
  viability, T/C: 2.15%
[30]
  viability, T/C: 2.17%

## COc1cc(C)[nH]c(=O)c1CN1CCc2c(Cl)cc(C(OC)C3COC3)c(Cl)c2C1=O (stereo not given) + CC[C@@]1(O)C(=O)OCc2c1cc1n(c2=O)Cc2cc3c(CN(C)C)c(O)ccc3nc2-1
Second compound 0.003 µM
  pIC50: < 5.00
Second compound 0.00949 µM
  pIC50: > 7.50
Second compound 0.03 µM
  pIC50: > 7.50
Second compound 0.0949 µM
  pIC50: > 7.50
Second compound 0.3 µM
  pIC50: > 7.50
[1]
  viability, T/C: 69.7%
[2]
  viability, T/C: 57.6%
[3]
  viability, T/C: 74.2%
[4]
  viability, T/C: 65%
[5]
  viability, T/C: 77%
[6]
  viability, T/C: 69.1%
[7]
  viability, T/C: 12.2%
[8]
  viability, T/C: 9.34%
[9]
  viability, T/C: 9.67%
[10]
  viability, T/C: 10.4%
[11]
  viability, T/C: 7.95%
[12]
  viability, T/C: 7.67%
[13]
  viability, T/C: 6.93%
[14]
  viability, T/C: 8.47%
[15]
  viability, T/C: 6.68%
[16]
  viability, T/C: 8.32%
[17]
  viability, T/C: 8.79%
[18]
  viability, T/C: 7.28%
[19]
  viability, T/C: 8.78%
[20]
  viability, T/C: 7.8%
[21]
  viability, T/C: 7.84%
[22]
  viability, T/C: 8.96%
[23]
  viability, T/C: 8.75%
[24]
  viability, T/C: 8.8%
[25]
  viability, T/C: 7.71%
[26]
  viability, T/C: 9.03%
[27]
  viability, T/C: 8.64%
[28]
  viability, T/C: 9.67%
[29]
  viability, T/C: 8.76%
[30]
  viability, T/C: 7.22%

## Cc1cc(C)c(CNC(=O)c2cc(-c3ccc(CN4CCOCC4)cc3)cc3c2cnn3C2CCCC2)c(=O)[nH]1 + CC[C@@]1(O)C(=O)OCc2c1cc1n(c2=O)Cc2cc3c(CN(C)C)c(O)ccc3nc2-1
Second compound 0.003 µM
  pIC50: 5.65
Second compound 0.00949 µM
  pIC50: > 7.50
Second compound 0.03 µM
  pIC50: > 7.50
Second compound 0.0949 µM
  pIC50: > 7.50
Second compound 0.3 µM
  pIC50: > 7.50
[1]
  viability, T/C: 52.6%
[2]
  viability, T/C: 52.9%
[3]
  viability, T/C: 54.8%
[4]
  viability, T/C: 51.6%
[5]
  viability, T/C: 49.1%
[6]
  viability, T/C: 39.2%
[7]
  viability, T/C: 6.76%
[8]
  viability, T/C: 6.82%
[9]
  viability, T/C: 6.88%
[10]
  viability, T/C: 6.69%
[11]
  viability, T/C: 6.81%
[12]
  viability, T/C: 5.13%
[13]
  viability, T/C: 6.03%
[14]
  viability, T/C: 5.75%
[15]
  viability, T/C: 6.33%
[16]
  viability, T/C: 5.99%
[17]
  viability, T/C: 6.45%
[18]
  viability, T/C: 16.3%
[19]
  viability, T/C: 5.7%
[20]
  viability, T/C: 5.83%
[21]
  viability, T/C: 5.84%
[22]
  viability, T/C: 6.02%
[23]
  viability, T/C: 6.69%
[24]
  viability, T/C: 6.41%
[25]
  viability, T/C: 5.68%
[26]
  viability, T/C: 6.37%
[27]
  viability, T/C: 6.67%
[28]
  viability, T/C: 6.18%
[29]
  viability, T/C: 6.37%
[30]
  viability, T/C: 6.13%

## [2H]c1nc(C)nc([2H])c1-c1cc(NC[C@@H](C)c2cccc3c(C(=O)NC)ccnc23)ncn1 + CC[C@@]1(O)C(=O)OCc2c1cc1n(c2=O)Cc2cc3c(CN(C)C)c(O)ccc3nc2-1
Second compound 0.003 µM
  pIC50: < 5.00
Second compound 0.00949 µM
  pIC50: > 7.50
Second compound 0.03 µM
  pIC50: > 7.50
Second compound 0.0949 µM
  pIC50: > 7.50
Second compound 0.3 µM
  pIC50: > 7.50
[1]
  viability, T/C: 51%
[2]
  viability, T/C: 62.2%
[3]
  viability, T/C: 63.5%
[4]
  viability, T/C: 52%
[5]
  viability, T/C: 66%
[6]
  viability, T/C: 51.4%
[7]
  viability, T/C: 10.3%
[8]
  viability, T/C: 8.59%
[9]
  viability, T/C: 8.43%
[10]
  viability, T/C: 7.06%
[11]
  viability, T/C: 6.95%
[12]
  viability, T/C: 9.89%
[13]
  viability, T/C: 7.23%
[14]
  viability, T/C: 6.65%
[15]
  viability, T/C: 6.56%
[16]
  viability, T/C: 8.39%
[17]
  viability, T/C: 8.61%
[18]
  viability, T/C: 8.73%
[19]
  viability, T/C: 7.9%
[20]
  viability, T/C: 7.8%
[21]
  viability, T/C: 7.91%
[22]
  viability, T/C: 7.63%
[23]
  viability, T/C: 7.79%
[24]
  viability, T/C: 9.29%
[25]
  viability, T/C: 8.56%
[26]
  viability, T/C: 8.32%
[27]
  viability, T/C: 8.45%
[28]
  viability, T/C: 8.64%
[29]
  viability, T/C: 8.15%
[30]
  viability, T/C: 8.2%
